Experimental findings from US20230172837A1, “AGENT FOR PREVENTING AND/OR IMPROVING PHOTOAGING AND/OR DERMAL PIGMENTATION, COSMETIC METHOD USING SAME, AND COSMETIC DEVICE TO BE APPLIED IN SAID METHOD” (SHISEIDO COMPANY, LTD., priority 2020, published 2023) are described below.

For the assay, the system named is M0 macrophages differentiated from THP-1. The experiment in a line: Intracellular activity of M0 macrophages, flux analyzer (OCR). Type of assay: cell-based, human. As to conditions: M0, 3 ppm, 48 hours, versus solvent (DMSO) alone. Here is the method: M0 macrophages, M1 macrophages and M2 macrophages induced to differentiate from THP-1 by the same method as Experiment 2 were measured for intracellular activity using an XFe24 (24-well) extracellular flux analyzer by Agilent Technologies (previously Seahorse Bioscience) (hereunder referred to as “flux analyzer”), with reference to Nat Immunol, 2014. 15(9): pp 846-855 (NPL 14). A flux analyzer is a device that allows non-invasive, highly sensitive periodic measurement of cells to determine the state of glycolysis as the main cellular energy metabolism pathway, and aerobic respiration by mitochondria.
Using a flux analyzer, oligomycin (ATP synthase inhibitor) (“Oligo”), FCCP (uncoupling agent) and rotenone (mitochondrial complex I inhibitor)+antimycin A (mitochondria complex III inhibitor) (“Rot+Ant”) were added at predetermined times and the oxygen consumption rate (OCR) and extracellular acidification rate (ECAR) were measured. The ECAR and OCR values used were the basal OCR and basal ECAR values at 18.3 minutes after measurement. Each measured value was calibrated by the number of cells determined by counting the cell nuclei stained by addition of Hoechst.
M0, M1 and M2 differentiated from THP-1 were prepared by the same method as Experiment 2, and hakushinin extract (hakushinin hydrolysate) prepared by the same method as Experiment 13 was added to the M0 (at 0.3 ppm, 1 ppm or 3 ppm). At 48 hours after incubation, the oxygen consumption rate (OCR) was measured using a flux analyzer. Each measured value was calibrated by the number of cells determined by counting the cell nuclei stained by addition of Hoechst (FIG. 21).
M0 and M2 differentiated from THP-1 were prepared by the same method as Experiment 2, linoleic acid, linolenic acid or juniperonic acid (3 ppm) was added to M0, and after 48 hours the oxygen consumption rate (OCR) was measured with a flux analyzer by the same method as Experiment 15. Each measured value was calibrated by the number of cells determined by counting the cell nuclei stained by addition of Hoechst.
The Basal OCR and mitochondrial respiration values for M0 were examined with the incubation time changed to 24 hours after addition of the hakushinin extract or unsaturated fatty acid. The experiment method was carried out by the same method as described in Experiment 17, except that the incubation time was changed to 24 hours after addition of the hakushinin extract or unsaturated fatty acid.

Take `CC/C=C\C/C=C\C/C=C\CCCC/C=C\CCCC(=O)O` [juniperonic acid]: the “Basal OCR” value is reported as “not significantly different” and the mitochondrial respiration result is on record as “not significantly different”.
In the case of `CCCCC/C=C\C/C=C\CCCCCCCC(=O)O` [linoleic acid], the “Basal OCR” value is reported as “not significantly different” and the mitochondrial respiration entry was “not significantly different”.
